Measurements as given in ChEMBL document CHEMBL1201862, “PubChem BioAssay data set” (2004).
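Interpolation was linear, between the two tested concentrations surrounding the appropriate level; five concentrations were tested over 48 hours in 96-well plates. GI50 marks 50% less growth.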 Calls of active or inactive are those of the source. Rule as the data show it: active = GI50 up to about 1.1 µM and inactive = higher.

What was measured:
Assay in all cases: NCI anticancer screen, dose series, 48 h
786-0 = tested on: 786-0
A498 = tested on: A498
A549 = tested on: A549
ACHN = tested on: ACHN
BT-549 = tested on: BT-549
CAKI-1 = tested on: CAKI-1
CCRF-CEM = tested on: CCRF-CEM
COLO 205 = tested on: COLO 205
DU-145 = tested on: DU-145
EKVX = tested on: EKVX
HCC 2998 = tested on: HCC 2998
HCT-116 = tested on: HCT-116
HCT-15 = tested on: HCT-15
HL-60 = tested on: HL-60
HOP-62 = tested on: HOP-62
HOP-92 = tested on: HOP-92
HT-29 = tested on: HT-29
Hs-578T = tested on: Hs-578T
IGROV-1 = tested on: IGROV-1
K562 = tested on: K562
KM12 = tested on: KM12
LOX IMVI = tested on: LOX IMVI
M14 = tested on: M14
MCF7 = tested on: MCF7
MDA-MB-231 = tested on: MDA-MB-231
MDA-MB-435 = tested on: MDA-MB-435
MDA-N = tested on: MDA-N
MOLT-4 = tested on: MOLT-4
Malme-3M = tested on: Malme-3M
NCI-H226 = tested on: NCI-H226
NCI-H23 = tested on: NCI-H23
NCI-H460 = tested on: NCI-H460
NCI-H522 = tested on: NCI-H522
NCI/ADR-RES = tested on: NCI/ADR-RES
OVCAR-3 = tested on: OVCAR-3
OVCAR-4 = tested on: OVCAR-4
OVCAR-5 = tested on: OVCAR-5
OVCAR-8 = tested on: OVCAR-8
PC-3 = tested on: PC-3
RPMI-8226 = tested on: RPMI-8226
RXF 393 = tested on: RXF 393
SF-268 = tested on: SF-268
SF-295 = tested on: SF-295
SF-539 = tested on: SF-539
SK-MEL-28 = tested on: SK-MEL-28
SK-MEL-2 = tested on: SK-MEL-2
SK-MEL-5 = tested on: SK-MEL-5
SK-OV-3 = tested on: SK-OV-3
SN12C = tested on: SN12C
SNB-19 = tested on: SNB-19
SNB-75 = tested on: SNB-75
SR = tested on: SR
SW-620 = tested on: SW-620
T47D = tested on: T47D
U-251 = tested on: U-251
UACC-257 = tested on: UACC-257
UACC-62 = tested on: UACC-62
UO-31 = tested on: UO-31
TK-10 = tested on: TK-10

## CC1(CCc2ccccc2)CC1(Br)Br (stereo not drawn)
786-0
  GI50: 21 µM (inactive)
A498
  GI50: 39.6 µM (inactive)
A549
  GI50: 32.9 µM (inactive)
ACHN
  GI50: 26.3 µM (inactive)
BT-549
  GI50: > 100 µM (inactive)
CAKI-1
  GI50: 56.5 µM (inactive)
CCRF-CEM
  GI50: 23.6 µM (inactive)
COLO 205
  GI50: 20.8 µM (inactive)
DU-145
  GI50: 57.9 µM (inactive)
EKVX
  GI50: 19.1 µM (inactive)
HCC 2998
  GI50: 40.9 µM (inactive)
HCT-116
  GI50: 30.3 µM (inactive)
HCT-15
  GI50: 54.8 µM
HL-60
  GI50: 21.5 µM (inactive)
HOP-62
  GI50: 51.9 µM (inactive)
HOP-92
  GI50: 13 µM (inactive)
HT-29
  GI50: 30.4 µM (inactive)
Hs-578T
  GI50: 42.9 µM (inactive)
IGROV-1
  GI50: 92 µM (inactive)
K562
  GI50: 19.5 µM (inactive)
KM12
  GI50: 35.7 µM (inactive)
LOX IMVI
  GI50: 20.5 µM (inactive)
M14
  GI50: 44.8 µM (inactive)
MCF7
  GI50: 38.8 µM (inactive)
MDA-MB-231
  GI50: 73.1 µM (inactive)
MDA-MB-435
  GI50: 25.5 µM (inactive)
MDA-N
  GI50: 32.7 µM (inactive)
MOLT-4
  GI50: 23.4 µM (inactive)
Malme-3M
  GI50: 22.5 µM (inactive)
NCI-H226
  GI50: 24 µM (inactive)
NCI-H23
  GI50: 43.9 µM (inactive)
NCI-H460
  GI50: 34.1 µM (inactive)
NCI-H522
  GI50: 23 µM (inactive)
NCI/ADR-RES
  GI50: 88.9 µM (inactive)
OVCAR-3
  GI50: 18 µM (inactive)
OVCAR-4
  GI50: 30.3 µM (inactive)
OVCAR-5
  GI50: 32.6 µM (inactive)
OVCAR-8
  GI50: 23.6 µM (inactive)
PC-3
  GI50: 40.8 µM (inactive)
RPMI-8226
  GI50: 18.6 µM (inactive)
RXF 393
  GI50: 20.7 µM (inactive)
SF-268
  GI50: 41.4 µM (inactive)
SF-295
  GI50: 25.4 µM (inactive)
SF-539
  GI50: > 100 µM (inactive)
SK-MEL-28
  GI50: > 100 µM (inactive)
SK-MEL-2
  GI50: 17.8 µM (inactive)
SK-MEL-5
  GI50: 13.1 µM (inactive)
SK-OV-3
  GI50: > 100 µM (inactive)
SN12C
  GI50: 18 µM (inactive)
SNB-19
  GI50: > 100 µM (inactive)
SNB-75
  GI50: 50.6 µM (inactive)
SR
  GI50: 19.8 µM (inactive)
SW-620
  GI50: > 100 µM (inactive)
T47D
  GI50: 27.2 µM (inactive)
U-251
  GI50: 31.4 µM (inactive)
UACC-257
  GI50: 25.8 µM (inactive)
UACC-62
  GI50: 52 µM (inactive)
UO-31
  GI50: 39.4 µM (inactive)

## C/C=C/C=C/C1=NN(c2cccc(S(=O)(=O)O)c2)C2(C1)SCC(=O)N2c1nc2ccccc2s1 (stereo not drawn)
786-0
  GI50: 19.8 µM (inactive)
A498
  GI50: 50.5 µM (inactive)
A549
  GI50: 86.3 µM (inactive)
ACHN
  GI50: 76.7 µM (inactive)
BT-549
  GI50: 35.3 µM (inactive)
CAKI-1
  GI50: 86.3 µM (inactive)
CCRF-CEM
  GI50: 24.2 µM (inactive)
COLO 205
  GI50: > 100 µM (inactive)
DU-145
  GI50: 34.5 µM (inactive)
EKVX
  GI50: 55.8 µM (inactive)
HCC 2998
  GI50: > 100 µM (inactive)
HCT-116
  GI50: 67 µM (inactive)
HCT-15
  GI50: 69.2 µM
HL-60
  GI50: > 100 µM (inactive)
HOP-92
  GI50: 26.2 µM (inactive)
HT-29
  GI50: > 100 µM (inactive)
Hs-578T
  GI50: > 100 µM (inactive)
IGROV-1
  GI50: 19.7 µM (inactive)
K562
  GI50: 44 µM (inactive)
KM12
  GI50: 54.6 µM (inactive)
LOX IMVI
  GI50: 19.6 µM (inactive)
M14
  GI50: > 100 µM (inactive)
MCF7
  GI50: 47.4 µM (inactive)
MDA-MB-231
  GI50: 56.2 µM (inactive)
MDA-MB-435
  GI50: 36.1 µM (inactive)
MDA-N
  GI50: 61 µM (inactive)
MOLT-4
  GI50: 29.4 µM (inactive)
Malme-3M
  GI50: > 100 µM (inactive)
NCI-H226
  GI50: 30.8 µM (inactive)
NCI-H23
  GI50: 42.5 µM (inactive)
NCI-H460
  GI50: 45.5 µM (inactive)
NCI-H522
  GI50: 33.1 µM (inactive)
NCI/ADR-RES
  GI50: 51.2 µM (inactive)
OVCAR-4
  GI50: 93.3 µM (inactive)
OVCAR-5
  GI50: > 100 µM (inactive)
OVCAR-8
  GI50: 36.2 µM (inactive)
PC-3
  GI50: 62.2 µM (inactive)
RPMI-8226
  GI50: 29.9 µM (inactive)
RXF 393
  GI50: > 100 µM (inactive)
SF-268
  GI50: 89.7 µM (inactive)
SF-539
  GI50: 45.9 µM (inactive)
SK-MEL-28
  GI50: > 100 µM (inactive)
SK-MEL-2
  GI50: 37.8 µM (inactive)
SK-MEL-5
  GI50: 85.5 µM (inactive)
SN12C
  GI50: 41.2 µM (inactive)
SNB-19
  GI50: 47 µM (inactive)
SNB-75
  GI50: 68.5 µM (inactive)
SR
  GI50: 25.1 µM (inactive)
SW-620
  GI50: 72.1 µM (inactive)
T47D
  GI50: 24.6 µM (inactive)
TK-10
  GI50: 47.8 µM (inactive)
U-251
  GI50: 37.9 µM (inactive)
UACC-257
  GI50: > 100 µM (inactive)
UACC-62
  GI50: 40.7 µM (inactive)
UO-31
  GI50: 47.8 µM (inactive)
